Reference: patent US9532990B2 (Zhejiang DTRM Biopharma Co. Ltd., priority 2014, dated 2017)
pIC50: −log10 of the molar value.

biological target: BTK wild type (Homo sapiens (Human), UniProt Q06187); experiment: Inhibition assay of BTK kinase activity (HTRF); assay type: biochemical; settings: not given
Description: Inhibition Assay of BTK Kinase Activity:
The enzyme reaction mixture of BTK wild type standard HTRF assay contained 1 nM BTK wild type, 1 μM biotin-TK1 peptide, and 30 μM ATP in a buffer. The enzyme reaction were carried out at room temperature for 60 minutes. […] The plates were incubated at room temperature for 60 minutes and then read in the Envision plate reader.

Chain of BTK wild type (Q06187 whole entry): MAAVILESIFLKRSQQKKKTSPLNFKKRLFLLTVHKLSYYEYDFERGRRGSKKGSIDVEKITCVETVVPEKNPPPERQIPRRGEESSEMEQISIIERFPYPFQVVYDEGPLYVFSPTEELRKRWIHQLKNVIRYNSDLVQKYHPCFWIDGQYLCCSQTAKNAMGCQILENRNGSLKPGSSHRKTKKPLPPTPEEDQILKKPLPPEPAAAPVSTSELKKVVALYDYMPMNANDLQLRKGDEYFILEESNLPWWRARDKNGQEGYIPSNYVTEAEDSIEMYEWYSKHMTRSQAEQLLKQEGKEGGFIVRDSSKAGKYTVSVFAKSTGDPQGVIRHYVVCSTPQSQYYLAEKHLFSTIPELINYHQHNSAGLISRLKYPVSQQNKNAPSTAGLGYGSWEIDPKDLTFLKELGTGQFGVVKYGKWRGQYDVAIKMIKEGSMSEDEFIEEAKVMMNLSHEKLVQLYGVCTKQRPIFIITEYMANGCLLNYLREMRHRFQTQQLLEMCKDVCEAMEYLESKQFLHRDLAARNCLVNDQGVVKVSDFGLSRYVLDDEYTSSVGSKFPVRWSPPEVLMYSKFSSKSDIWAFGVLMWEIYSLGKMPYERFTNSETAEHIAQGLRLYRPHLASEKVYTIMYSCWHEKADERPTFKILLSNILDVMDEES

Row | SMILES | pIC50
1 | Nc1ncnc2c1c(-c1ccc(Oc3c(F)c(F)cc(F)c3F)cc1F)nn2[C@@H]1CCN(C(=O)CCl)C1 [Compound 75, 1-((R)-3-(4-amino-3-(2-fluoro-4-(2,3,5,6-tetrafluorophenoxy)phenyl)-1H-pyrazolo[3,4-d]pyrimidin-1-yl)pyrrolidin-1-yl)-2-chloroethanone] | > 8.00
2 | C=CC(=O)NC(C)(C)Cn1nc(-c2ccc(Oc3c(F)c(F)cc(F)c3F)cc2F)c2c(N)ncnc21 [Compound 87, N-(1-(4-amino-3-(2-fluoro-4-(2,3,5,6-tetrafluorophenoxy)phenyl)-1H-pyrazolo[3,4-d]pyrimidin-1-yl)-2-methylpropan-2-yl)acrylamide] | > 8.00

same assay, conditions: all compounds with IC50 of less 10 nM; read-out: IC50 (BTK)

Row | SMILES | pIC50
3 | C=CC(=O)N1CC[C@@H](n2nc(-c3ccc(C(=O)c4ccccc4F)cc3F)c3c(N)ncnc32)C1 [Compound 72, 1-((R)-3-(4-amino-3-(2-fluoro-4-(2-fluorobenzoyl)phenyl)-1H-pyrazolo[3,4-d]pyrimidin-1-yl)pyrrolidin-1-yl)prop-2-en-1-one] | > 8.00
4 | CCOC(=O)/C=C/CNC(=O)N1CCCC(n2nc(-c3ccc(Oc4c(F)c(F)cc(F)c4F)cc3F)c3c(N)ncnc32)C1 (centres unmarked) [Compound 74, (E)-ethyl 4-(3-(4-amino-3-(2-fluoro-4-(2,3,5,6-tetrafluorophenoxy)phenyl)-1H-pyrazolo[3,4-d]pyrimidin-1-yl)piperidine-1-carboxamido)but-2-enoate] | > 8.00
5 | CN(C)C/C=C/C(=O)N1CC[C@@H](n2nc(-c3ccc(Oc4c(F)c(F)cc(F)c4F)cc3F)c3c(N)ncnc32)C1 [Compound 91, (E)-1-((R)-3-(4-amino-3-(2-fluoro-4-(2,3,5,6-tetrafluorophenoxy)phenyl)-1H-pyrazolo[3,4-d]pyrimidin-1-yl)pyrrolidin-1-yl)-4-(dimethylamino)but-2-en-1-one] | > 8.00

same assay, conditions: read-out: BTK IC50

Row | SMILES | pIC50
6 | Nc1ncnc2c1c(-c1ccc(Oc3c(F)c(F)cc(F)c3F)cc1F)nn2C1CCCN(C(=O)CC(=O)C(F)(F)F)C1 (centres unmarked) [Compound 65, 1-(3-(4-amino-3-(2-fluoro-4-(2,3,5,6-tetrafluorophenoxy)phenyl)-1H-pyrazolo[3,4-d]pyrimidin-1-yl)piperidin-1-yl)-4,4,4-trifluorobutane-1,3-dione] | 6.92
7 | O=C(CC(=O)C(F)(F)F)Nc1ncnc2c1c(-c1ccc(Oc3c(F)c(F)cc(F)c3F)cc1F)nn2C1CCCNC1 (centres unmarked) [Compound 66, 4,4,4-trifluoro-N-(3-(2-fluoro-4-(2,3,5,6-tetrafluorophenoxy)phenyl)-1-(piperidin-3-yl)-1H-pyrazolo[3,4-d]pyrimidin-4-yl)-3-oxobutanamide] | 6.14
8 | Nc1ncnc2c1c(-c1ccc(Oc3c(F)c(F)cc(F)c3F)cc1F)nn2C1CCCN(C(=O)CC(=O)C2CC2)C1 (centres unmarked) [Compound 67, 1-(3-(4-amino-3-(2-fluoro-4-(2,3,5,6-tetrafluorophenoxy)phenyl)-1H-pyrazolo[3,4-d]pyrimidin-1-yl)piperidin-1-yl)-3-cyclopropylpropane-1,3-dione] | 6.23
9 | C=C(CN1CCCC(n2nc(-c3ccc(Oc4c(F)c(F)cc(F)c4F)cc3F)c3c(N)ncnc32)C1)C(=O)OCC (centres unmarked) [Compound 68, ethyl 2-((3-(4-amino-3-(2-fluoro-4-(2,3,5,6-tetrafluorophenoxy)phenyl)-1H-pyrazolo[3,4-d]pyrimidin-1-yl)piperidin-1-yl)methyl)acrylate] | 6.55
10 | C=C(CN1CCCC(n2nc(-c3ccc(Oc4c(F)c(F)cc(F)c4F)cc3F)c3c(N)ncnc32)C1)C(=O)NC (centres unmarked) [Compound 69, 2-((3-(4-amino-3-(2-fluoro-4-(2,3,5,6-tetrafluorophenoxy)phenyl)-1H-pyrazolo[3,4-d]pyrimidin-1-yl)piperidin-1-yl)methyl)-N-methylacrylamide] | 7.28
11 | C=C(C#N)CN1CCCC(n2nc(-c3ccc(Oc4c(F)c(F)cc(F)c4F)cc3F)c3c(N)ncnc32)C1 (centres unmarked) [Compound 70, 2-((3-(4-amino-3-(2-fluoro-4-(2,3,5,6-tetrafluorophenoxy)phenyl)-1H-pyrazolo[3,4-d]pyrimidin-1-yl)piperidin-1-yl)methyl)acrylonitrile] | 7.77
12 | C=CC(=O)N1CC[C@@H](n2nc(-c3ccc(C(=O)c4ccccc4F)cc3F)c3c(N)ncnc32)C1 [Compound 72, 1-((R)-3-(4-amino-3-(2-fluoro-4-(2-fluorobenzoyl)phenyl)-1H-pyrazolo[3,4-d]pyrimidin-1-yl)pyrrolidin-1-yl)prop-2-en-1-one] | 9.00
13 | CCOC(=O)/C=C/CNC(=O)N1CCCC(n2nc(-c3ccc(Oc4c(F)c(F)cc(F)c4F)cc3F)c3c(N)ncnc32)C1 (centres unmarked) [Compound 74, (E)-ethyl 4-(3-(4-amino-3-(2-fluoro-4-(2,3,5,6-tetrafluorophenoxy)phenyl)-1H-pyrazolo[3,4-d]pyrimidin-1-yl)piperidine-1-carboxamido)but-2-enoate] | 8.52
14 | Nc1ncnc2c1c(-c1ccc(Oc3c(F)c(F)cc(F)c3F)cc1F)nn2[C@@H]1CCN(C(=O)CCl)C1 [Compound 75, 1-((R)-3-(4-amino-3-(2-fluoro-4-(2,3,5,6-tetrafluorophenoxy)phenyl)-1H-pyrazolo[3,4-d]pyrimidin-1-yl)pyrrolidin-1-yl)-2-chloroethanone] | 8.52
15 | CNC(=O)/C=C/CNC(=O)N1CC[C@@H](n2nc(-c3ccc(Oc4c(F)c(F)cc(F)c4F)cc3F)c3c(N)ncnc32)C1 [Compound 76, (3R)-3-(4-amino-3-(2-fluoro-4-(2,3,5,6-tetrafluorophenoxy)phenyl)-1H-pyrazolo[3,4-d]pyrimidin-1-yl)-N-(4-(methylamino)-4-oxobut-2-enyl)pyrrolidine-1-carboxamide] | 7.57
16 | Nc1ncnc2c1c(-c1ccc(Oc3c(F)c(F)cc(F)c3F)cc1F)nn2[C@@H]1CCN(C(=O)C(=O)C(F)(F)F)C1 [Compound 77, 1-((R)-3-(4-amino-3-(2-fluoro-4-(2,3,5,6-tetrafluorophenoxy)phenyl)-1H-pyrazolo[3,4-d]pyrimidin-1-yl)pyrrolidin-1-yl)-3,3,3-trifluoropropane-1,2-dione] | 6.70
17 | Nc1ncnc2c1c(-c1ccc(Oc3c(F)c(F)cc(F)c3F)cc1F)nn2[C@@H]1CCN(C(=O)C(=O)C2CC2)C1 [Compound 78, 1-((R)-3-(4-amino-3-(2-fluoro-4-(2,3,5,6-tetrafluorophenoxy)phenyl)-1H-pyrazolo[3,4-d]pyrimidin-1-yl)pyrrolidin-1-yl)-2-cyclopropylethane-1,2-dione] | 5.72
18 | CC(C)C(=O)C(=O)N1CC[C@@H](n2nc(-c3ccc(Oc4c(F)c(F)cc(F)c4F)cc3F)c3c(N)ncnc32)C1 [Compound 79, 1-((R)-3-(4-amino-3-(2-fluoro-4-(2,3,5,6-tetrafluorophenoxy)phenyl)-1H-pyrazolo[3,4-d]pyrimidin-1-yl)pyrrolidin-1-yl)-3-methylbutane-1,2-dione] | 5.78
19 | CC(C)(CO)C(=O)C(=O)N1CC[C@@H](n2nc(-c3ccc(Oc4c(F)c(F)cc(F)c4F)cc3F)c3c(N)ncnc32)C1 [Compound 80, 1-((R)-3-(4-amino-3-(2-fluoro-4-(2,3,5,6-tetrafluorophenoxy)phenyl)-1H-pyrazolo[3,4-d]pyrimidin-1-yl)pyrrolidin-1-yl)-4-hydroxy-3,3-dimethylbutane-1,2-dione] | 5.89
20 | Nc1ncnc2c1c(-c1ccc(Oc3c(F)c(F)cc(F)c3F)cc1F)nn2C1CCCN(C(=O)C(=O)C2CC2)C1 (centres unmarked) [Compound 81, 1-(3-(4-amino-3-(2-fluoro-4-(2,3,5,6-tetrafluorophenoxy)phenyl)-1H-pyrazolo[3,4-d]pyrimidin-1-yl)piperidin-1-yl)-2-cyclopropylethane-1,2-dione] | 5.65
21 | C=CC(=O)NCCn1nc(-c2ccc(Oc3c(F)c(F)cc(F)c3F)cc2F)c2c(N)ncnc21 [Compound 82, N-(2-(4-amino-3-(2-fluoro-4-(2,3,5,6-tetrafluorophenoxy)phenyl)-1H-pyrazolo[3,4-d]pyrimidin-1-yl)ethyl)acrylamide] | 7.60
22 | C=CC(=O)NC(C)C(C)n1nc(-c2ccc(Oc3c(F)c(F)cc(F)c3F)cc2F)c2c(N)ncnc21 (centres unmarked) [Compound 83, N-(3-(4-amino-3-(2-fluoro-4-(2,3,5,6-tetrafluorophenoxy)phenyl)-1H-pyrazolo[3,4-d]pyrimidin-1-yl)butan-2-yl)acrylamide] | 7.12
23 | C=CC(=O)NCC(C)n1nc(-c2ccc(Oc3c(F)c(F)cc(F)c3F)cc2F)c2c(N)ncnc21 (centres unmarked) [Compound 84, N-(2-(4-amino-3-(2-fluoro-4-(2,3,5,6-tetrafluorophenoxy)phenyl)-1H-pyrazolo[3,4-d]pyrimidin-1-yl)propyl)acrylamide] | 7.80
24 | C=CC(=O)N(C)CCn1nc(-c2ccc(Oc3c(F)c(F)cc(F)c3F)cc2F)c2c(N)ncnc21 [Compound 85, N-(2-(4-amino-3-(2-fluoro-4-(2,3,5,6-tetrafluorophenoxy)phenyl)-1H-pyrazolo[3,4-d]pyrimidin-1-yl)ethyl)-N-methylacrylamide] | 7.77
25 | C=CC(=O)N(C)CCCn1nc(-c2ccc(Oc3c(F)c(F)cc(F)c3F)cc2F)c2c(N)ncnc21 [Compound 86, N-(3-(4-amino-3-(2-fluoro-4-(2,3,5,6-tetrafluorophenoxy)phenyl)-1H-pyrazolo[3,4-d]pyrimidin-1-yl)propyl)-N-methylacrylamide] | 8.10
26 | C=CC(=O)NC(C)(C)Cn1nc(-c2ccc(Oc3c(F)c(F)cc(F)c3F)cc2F)c2c(N)ncnc21 [Compound 87, N-(1-(4-amino-3-(2-fluoro-4-(2,3,5,6-tetrafluorophenoxy)phenyl)-1H-pyrazolo[3,4-d]pyrimidin-1-yl)-2-methylpropan-2-yl)acrylamide] | 8.10
27 | C=CC(=O)N1CC[C@@H](n2nc(-c3ccc(Oc4ccnc(C(=O)NC)c4)cc3F)c3c(N)ncnc32)C1 [Compound 88, 4-(4-(1-((R)-1-acryloylpyrrolidin-3-yl)-4-amino-1H-pyrazolo[3,4-d]pyrimidin-3-yl)-3-fluorophenoxy)-N-methylpicolinamide] | 7.96
28 | C=CC(=O)N1CC[C@@H](n2nc(-c3ccc(Oc4ccnc5cc(OC)c(OC)cc45)cc3F)c3c(N)ncnc32)C1 [Compound 89, 1-((R)-3-(4-amino-3-(4-(6,7-dimethoxyquinolin-4-yloxy)-2-fluorophenyl)-1H-pyrazolo[3,4-d]pyrimidin-1-yl)pyrrolidin-1-yl)prop-2-en-1-one] | 7.60
29 | C=CC(=O)N1CC[C@@H](n2nc(-c3ccc(Oc4ccnc5ccccc45)cc3F)c3c(N)ncnc32)C1 [Compound 90, 1-((R)-3-(4-amino-3-(2-fluoro-4-(quinolin-4-yloxy)phenyl)-1H-pyrazolo[3,4-d]pyrimidin-1-yl)pyrrolidin-1-yl)prop-2-en-1-one] | 7.82
30 | CN(C)C/C=C/C(=O)N1CC[C@@H](n2nc(-c3ccc(Oc4c(F)c(F)cc(F)c4F)cc3F)c3c(N)ncnc32)C1 [Compound 91, (E)-1-((R)-3-(4-amino-3-(2-fluoro-4-(2,3,5,6-tetrafluorophenoxy)phenyl)-1H-pyrazolo[3,4-d]pyrimidin-1-yl)pyrrolidin-1-yl)-4-(dimethylamino)but-2-en-1-one] | 8.52
31 | Nc1ncnc2c1c(-c1ccc(Oc3c(F)c(F)cc(F)c3F)cc1F)nn2[C@@H]1CCN(C(=O)/C=C/c2ccccc2)C1 [Compound 92, (E)-1-((R)-3-(4-amino-3-(2-fluoro-4-(2,3,5,6-tetrafluorophenoxy)phenyl)-1H-pyrazolo[3,4-d]pyrimidin-1-yl)pyrrolidin-1-yl)-3-phenylprop-2-en-1-one] | 5.62
32 | Nc1ncnc2c1c(-c1ccc(Oc3c(F)c(F)cc(F)c3F)cc1F)nn2[C@@H]1CCN(C(=O)/C=C/c2ccccc2F)C1 [Compound 93, (E)-1-((R)-3-(4-amino-3-(2-fluoro-4-(2,3,5,6-tetrafluorophenoxy)phenyl)-1H-pyrazolo[3,4-d]pyrimidin-1-yl)pyrrolidin-1-yl)-3-(2-fluorophenyl)prop-2-en-1-one] | 5.58
